Earlier results, collected in US8362030B2, “Tricyclic derivatives as inhibitors of poly(ADP-ribose) polymerase (PARP)” (Istituto di Ricerche di Biologia Molecolare P. Angeletti …, priority 2008, dated 2013).

Tested on: ischemia and reperfusion of the heart
Settings: rabbits

SMILES | reduction in infarct size (single injection 1 mg/kg) | reduction in infarct size in the heart (single injection 10 mg/kg, one minute before occlusion or before reperfusion)
Oc1cccc2c(O)nccc12 [1,5-dihydroxyisoquinoline] | 38-48% | –
NC(=O)c1cccc(N)c1 [3-amino-benzamide] | – | 32-42%
